Counter-ions that a name gives are not always drawn.

T1 sequence (Q62758 whole entry): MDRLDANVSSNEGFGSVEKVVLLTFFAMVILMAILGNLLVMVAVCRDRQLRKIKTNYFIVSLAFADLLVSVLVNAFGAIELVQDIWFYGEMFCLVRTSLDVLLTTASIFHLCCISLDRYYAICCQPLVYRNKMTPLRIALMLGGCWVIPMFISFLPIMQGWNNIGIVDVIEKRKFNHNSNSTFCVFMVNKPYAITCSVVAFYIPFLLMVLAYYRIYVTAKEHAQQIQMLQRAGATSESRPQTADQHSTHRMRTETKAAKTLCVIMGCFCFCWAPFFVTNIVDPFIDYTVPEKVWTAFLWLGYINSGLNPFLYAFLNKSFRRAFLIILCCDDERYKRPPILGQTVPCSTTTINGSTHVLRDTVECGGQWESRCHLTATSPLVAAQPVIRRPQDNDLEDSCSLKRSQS

The first series relates to dopamine D2 receptor.
Experiment: not given
To be noted: rat, in vivo, po, 100 mg/kg. The text has this:
The compounds (salts) obtained by Examples as well as known compound (Metoclopramide) were selected as Test and Control Compounds, respectively. The compound was orally administered to rats to observe for 2 days general symptoms including catalepsy and blepharoptosis due to antagonistic action of the compound to dopamine D2 receptor.
Take `CCN(CC)CCNC(=O)c1cc(Cl)c(N)cc1OC` [Metoclopramide, 4-amino-5-chloro-N-[(2-diethylamino)ethyl]-2-methoxybenzamide]: the “influence to central nerve system due to anti-dopamine action” value is reported as “somewhat remarkable influence was recognized”.

Another series addresses T1, 5-HT4 receptor (Rattus norvegicus, UniProt Q62758).
T1 construct: muscular sample of mucous membrane in esophgus exentrated from a rat; from tissue; host or cells: rat oesophagus, muscularis mucosae (isolated tissue contracted with carbachol)
The series is described as follows: Agonisting Action to 5-HT4 Receptor: relaxation of carbachol-contracted muscular sample of mucous membrane in rat esophagus. Conditions: negative logarithm of concentration causing 50% relaxation. An excerpt: Pharmacol.", Vol. 343, page 439 (1991)].
Namely, a relaxation of the Test and Control compounds in various concentration showing to carbachol contradiction of a muscular sample of mucous membrane in esophgus exentrated from a rat was checked to calculate a concentration causing 50% relaxation and compared with its negative logarithm (P EC50).
What is called EC50 is the concentration giving half of the maximal effect. The low end stands for an effect from little substance, the high end for a need for much substance. In the case of `COc1c(C(=O)NCCC23CCCN2CCC3)cc(Cl)c2c1CCN2` [Example 1, N-[2-(1-Azabicyclo[3.3.01]octan-5-yl)ethyl]-7-chloro-2,3-dihydro-4-methoxyindole-5-carboxamide. 1/2 fumarate], the EC50 is 5010 nM.
On the same count and under the same terms, for `CCOc1c(C(=O)NCCC23CCCN2CCC3)cc(Cl)c2c1CCN2` [Example 2, N-[2-(1-Azabicyclo[3.3.0]octan-5-yl)ethyl]-7-chloro-2,3-dihydro-4-ethoxyindole-5-carboxamide. 1/2 fumarate] the value was 5010 nM; for `Cc1oc2c(C(=O)NCCC34CCCN3CCC4)ccc(N)c2c1Cl` [Example 3, 4-Amino-N-[2-(1-Azabicyclo[3.3.0]octan-5-yl)ethyl]-3-chloro-2-methylbenzo[b]furan-7-carboxamide.1/2 fumarate], 2000 nM.
As for `Cc1cc2c(N)c(Cl)cc(C(=O)NCCC34CCCN3CCC4)c2o1` [Example 4, 4-Amino-N-[2-(1-azabicyclo[3.3.0]octan-5-yl)ethyl]-5-chloro-2-methylbenzo[b]furan-7-carboxamide. 1/2 fumarate], the EC50 was 39.8 nM.
The same measure, in the same setting: the result for `Cc1oc2c(C(=O)NCCC34CCCN3CCC4)cc(Cl)c(N)c2c1Cl` [Example 5, 4-Amino-N-[2-(1-azabicyclo[3.3.0]octan-5yl)ethyl]-3,5-dichloro-2-methylbenzo[b]furan-7-carboxamide. 1/2 fumarate] reads 794 nM.
Same read-out and setting: the result for `CCCc1c(N)c(Cl)cc(C(=O)NCCC23CCCN2CCC3)c1OC` [Example 6, 4-Amino-N-[2-(1-azabicyclo[3.3.0]octan-5-yl)ethyl]-5-chloro-2-methoxy-3-propylbenzamide. 1/2 fumarate] reads 501 nM; that for `CCCc1c(N)c(Cl)cc(C(=O)NCCC23CCCN2CCC3)c1OCC` [Example 7, 4-Amino-N-[2-(1-azabicyclo[3.3.0]octan-5-yl)ethyl]-5-chloro-2-ethoxy-3-propylbenzamide. 1/2 fumarate], 398 nM.
What is called pEC50 is −log10 of the EC50, conventionally taken in molar units. Low readings indicate a large EC50, high ones a small EC50. With `C=CCc1c(N)c(Cl)cc(C(=O)NCCC23CCCN2CCC3)c1OC` [Example 8, 4-Amino-N-[2-(1-azabicyclo[3.3.0]octan-5-yl)ethyl]-5-chloro-2-methoxy-3-(2-propenyl)benzamide. 1/2 fumarate], the pEC50 came to 6.3.
`C=CCc1c(N)c(Cl)cc(C(=O)NCCC23CCCN2CCC3)c1OCC` [Example 9, 4-Amino-N-[2-(1-azabicyclo[3.3.0]octan-5-yl)ethyl]-5-chloro-2-ethoxy-3-(2-propenyl)benzamide. 1/2 fumarate] came in with a pEC50 of 6.3.
